“And” between values parts separate entries of the source, which are not always exact repeats. Equal entries are not always repeated.
Assays:
[1] = target: Glycogen synthase kinase-3 alpha (Homo sapiens, UniProt P49840); assay: TR-FRET Assay
How it was run: (§1)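 TR-FRET readout: streptavidin-d2 (40 nM in added detection mix) plus Tb-anti-pSer641 Ab (2 nM in mix). Steps were 30 min compound preincubation, kinase reaction, then EDTA stop.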

[2] = target: Glycogen synthase kinase-3 beta (Homo sapiens, UniProt P49841); assay: TR-FRET Assay
How it was run: as §1

Glycogen synthase kinase-3 alpha, sequence (P49840 whole entry): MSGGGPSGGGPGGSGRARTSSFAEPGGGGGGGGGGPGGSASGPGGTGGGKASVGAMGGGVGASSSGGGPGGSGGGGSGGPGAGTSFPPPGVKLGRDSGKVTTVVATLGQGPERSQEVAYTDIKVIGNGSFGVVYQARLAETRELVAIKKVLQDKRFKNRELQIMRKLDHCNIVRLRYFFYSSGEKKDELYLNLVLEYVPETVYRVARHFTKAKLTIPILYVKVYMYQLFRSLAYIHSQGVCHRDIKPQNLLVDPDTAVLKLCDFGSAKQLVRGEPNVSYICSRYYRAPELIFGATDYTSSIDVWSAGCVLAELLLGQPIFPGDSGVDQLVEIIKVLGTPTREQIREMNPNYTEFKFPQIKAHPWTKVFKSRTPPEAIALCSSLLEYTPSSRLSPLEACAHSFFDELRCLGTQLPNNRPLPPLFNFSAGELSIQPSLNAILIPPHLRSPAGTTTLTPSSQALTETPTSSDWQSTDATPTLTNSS
Glycogen synthase kinase-3 beta, sequence (P49841 whole entry): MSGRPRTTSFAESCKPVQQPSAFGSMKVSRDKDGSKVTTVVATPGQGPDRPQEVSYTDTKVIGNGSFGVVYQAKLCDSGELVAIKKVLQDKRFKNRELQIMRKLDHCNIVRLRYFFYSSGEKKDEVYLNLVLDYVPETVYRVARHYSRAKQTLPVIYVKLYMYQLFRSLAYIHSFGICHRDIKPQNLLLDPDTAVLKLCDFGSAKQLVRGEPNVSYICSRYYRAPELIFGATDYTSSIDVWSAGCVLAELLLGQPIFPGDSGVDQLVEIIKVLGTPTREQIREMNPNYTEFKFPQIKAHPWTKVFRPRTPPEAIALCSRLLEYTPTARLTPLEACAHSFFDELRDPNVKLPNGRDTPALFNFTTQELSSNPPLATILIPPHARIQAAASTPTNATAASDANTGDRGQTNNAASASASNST

Row | Structure (SMILES) | IC50 [1] | IC50 [2]
1 | CCC1(c2cccc(C3CC4CCC(C3)O4)c2)C2=CN=NC2NC2=C1C(=O)CC(C)(C)C2 (configuration not stated) [US20250313563, Compound 889622] | 100 to 1000 nM | 100 to 1000 nM
2 | CCC1(c2cccc(N(C)c3ccncn3)c2)C2=CN=NC2NC2=C1C(=O)CC(C)(C)C2 (configuration not stated) [US20250313563, Compound 902970] | < 100 nM | 100 to 1000 nM
3 | CC[C@@]1(c2cccc(-c3ccnc(C)c3)c2)C2=CN=NC2NC2=C1C(=O)N[C@H](C)C2 (some centres not stated) [US20250313563, Compound 926300] | < 100 nM and 100 to 1000 nM | 100 to 1000 nM and > 5000 nM
4 | CCC1(c2ccccc2)C2=C(N=NC2)NC2=C1C(=O)C(C)(C)SC2 (configuration not stated) [US20250313563, Compound 862028] | 100 to 1000 nM | 1000 to 5000 nM
5 | CC[C@@]1(c2cccc(-c3cc(C)nc(C)c3)c2)C2=CN=NC2NC2=C1C(=O)CC(C)(C)C2 (some centres not stated) [US20250313563, Compound 913223] | > 5000 nM | > 5000 nM
6 | CC[C@]1(c2cccc(C3CCOCC3)c2)C2=CN=NC2NC2=C1C(=O)CC(C)(C)C2 (some centres not stated) [US20250313563, Compound 819638] | 100 to 1000 nM | 100 to 1000 nM
7 | CC1(C)CC(=O)C2=C(C1)NC1=C(CN=N1)[C@@]21CCOC(C)(C)C1 [US20250313563, Compound 924299] | 100 to 1000 nM | 100 to 1000 nM
8 | CC1(C)CC(=O)C2=C(C1)NC1N=NC=C1C21CCCN(S(=O)(=O)Cc2ccccc2)CC1 (configuration not stated) [US20250313563, Compound 932632] | < 100 nM | 100 to 1000 nM
9 | C[S@+]([O-])c1cccc([C@]2(C)C3=C(CC(C)(C)CC3=O)NC3=C2C(CC(C)(C)C)N=N3)c1 (some centres not stated) [US20250313563, Compound 126190] | 1000 to 5000 nM | 100 to 1000 nM
10 | CC1(C)CC(=O)C2=C(C1)NC1=C(CN=N1)C21CCN(S(=O)(=O)c2ccccc2C#N)CC1 [US20250313563, Compound 947479] | < 100 nM | < 100 nM
11 | CC[C@@]1(c2cccc(-c3c(C)c(C)nn3C)c2)C2=CN=NC2NC2=C1C(=O)NC(C)(C)C2 (some centres not stated) [US20250313563, Compound 950062] | < 100 nM | 100 to 1000 nM
12 | CC[C@]1(c2cccc(N3CCC3)c2)C2=CN=NC2NC2=C1C(=O)CC(C)(C)C2 (some centres not stated) [US20250313563, Compound 889631] | 100 to 1000 nM | 100 to 1000 nM
13 | CC1(C)CC(=O)C2=C(C1)NC1=C(CN=N1)C2(C)c1cc(F)cc(F)c1 (configuration not stated) [US20250313563, Compound 785735] | 100 to 1000 nM | > 5000 nM
14 | CC1(C)CC(=O)C2=C(C1)NC1=C(CN=N1)C21COC2(CN(S(=O)(=O)c3ccccc3)C2)C1 (configuration not stated) [US20250313563, Compound 913002] | 100 to 1000 nM | 1000 to 5000 nM
15 | CC(C)(C)CC1=C2C(N=N1)NC1=C(C(=O)CC(C)(C)C1)[C@@]21COc2ccccc21 (some centres not stated) [US20250313563, Compound 117093] | 1000 to 5000 nM | 100 to 1000 nM
16 | COc1cccc(S(=O)(=O)N2CCC3(CC2)C2=C(N=NC2)NC2=C3C(=O)CC(C)(C)C2)c1 [US20250313563, Compound 901468] | < 100 nM and 100 to 1000 nM | < 100 nM and 1000 to 5000 nM
17 | COCc1ccc(S(=O)(=O)N2CCC3(CC2)C2=C(N=NC2)NC2=C3C(=O)CC(C)(C)C2)cc1 [US20250313563, Compound 947250] | < 100 nM | < 100 nM
18 | C[C@@]1(c2ccccc2)C2=C(N=NC2)NC2=C1C(=O)CC1(CCCC1)C2 [US20250313563, Compound 792339] | > 1700 nM | > 5000 nM
19 | CCC1(c2cccc(-c3ccnc(OC(F)F)c3)c2)C2=CN=NC2NC2=C1C(=O)CC(C)(C)C2 (configuration not stated) [US20250313563, Compound 932629] | < 100 nM | 100 to 1000 nM
20 | CC(C)Oc1ccc(S(=O)(=O)N2CCC3(CC2)C2=C(N=NC2)NC2=C3C(=O)CC(C)(C)C2)cn1 [US20250313563, Compound 945676] | < 100 nM | < 100 nM
21 | CC[C@]1(c2cccc(-c3cnn(C)c3)c2)C2=CN=NC2NC2=C1C(=O)CC(C)(C)C2 (some centres not stated) [US20250313563, Compound 819577] | 100 to 1000 nM | 100 to 1000 nM
22 | CC[C@]1(c2cccc(-c3cnn(CCN4CCCC4)c3)c2)C2=CN=NC2NC2=C1C(=O)NC(C)(C)C2 (some centres not stated) [US20250313563, Compound 949510] | > 5000 nM | > 5000 nM
23 | CC[C@]1(c2cccc(-c3ccnc(C)c3C)c2)C2=CN=NC2NC2=C1C(=O)NC(C)(C)C2 (some centres not stated) [US20250313563, Compound 948188] | 1000 to 5000 nM | > 5000 nM
24 | CC(=O)N1C[C@]2(C[C@@]3(CO2)C2=C(N=NC2)NC2=C3C(=O)CC(C)(C)C2)[C@H]1C [US20250313563, Compound 948437] | < 100 nM | < 100 nM
25 | O=C1C[C@@]2(CCOC2)CC2=C1C1(CCOCC1)C1=C(N=NC1)N2 [US20250313563, Compound 901475] | 100 to 1000 nM | 100 to 1000 nM
26 | CC[C@@]1(c2cccc(S(C)(=O)=O)c2)C2=C(CC(C)(C)NC2=O)NC2N=NC(C)=C21 (some centres not stated) [US20250313563, Compound 947815] | 1000 to 5000 nM | > 5000 nM

— BindingDB's records for patent US20250313563 (The Broad Institute, 2025)
